Source: BindingDB's records for patent US9446044 (DIAXONHIT, 2016)

Target: Dual specificity tyrosine-phosphorylation-regulated kinase 1A (Homo sapiens, UniProt Q13627)
Experiment: HotSpot Technology Assay
Details: pH 7.5; 25 °C

IC50, 0.5 µM:
NC(=O)c1nc2ccc3ncnc(Nc4ccc5c(c4)OCO5)c3c2s1 [US9446044, 39]
COC(=O)c1nc2ccc3ncnc(Nc4ccc5c(c4)OCO5)c3c2s1 [US9446044, 84]
COc1ccc(Nc2ncnc3ccc4nc(C(=N)N(C)C)sc4c23)cc1 [US9446044, 28]
